# Measured values: patent US8119614B2, “Substitution derivatives of N6-benzyladenosine, methods of their preparation, their use for preparation of drugs, cosmetic preparations and growth regulators, pharmaceutical preparations, cosmetic preparations and growth regulators containing these compounds” (Ustav Experimentalni Botaniky Akademie Ved Ceske Republiky, priority 2002, dated 2012)
# Like-named read-outs stand apart in the source and are kept apart here.
# Tests used:
# [1] = tested on: HOS; assay: In vitro cytotoxic activity, Calcein AM assay, HOS; type: cell-based; settings: 72 hours
# [2] = tested on: mouse fibroblasts NIH3T3; assay: In vitro cytotoxic activity, Calcein AM assay, NIH-3T3; type: cell-based; settings: read-out: IC 50 NIH-3T3
# How it was run: (§1)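 10^4 cells/well, 24 h stabilisation; cpd 6 × 4-fold dilutions, top 166.7 μM, duplicates, 72 h, 37 °C, 5% CO2; Calcein AM 1 h, fluorescence vs untreated controls; GI50 from curve.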
# [3] = tested on: breast carcinoma cell lines MCF-7; assay: In vitro cytotoxic activity, Calcein AM assay, MCF7; type: cell-based, human; settings: read-out: IC 50 MCF7
# How it was run: as §1
# [4] = tested on: human erythroleukaemia K562; assay: In vitro cytotoxic activity, Calcein AM assay, K-562; type: cell-based; settings: read-out: IC 50 K-562
# How it was run: as §1
# [5] = tested on: promyelocytic HL-60; assay: In vitro cytotoxic activity, Calcein AM assay, HL60; type: cell-based, human; settings: read-out: IC 50 HL60
# How it was run: as §1
# [6] = tested on: human malignant melanoma cells G361; assay: In vitro cytotoxic activity, Calcein AM assay, G-361; type: cell-based; settings: read-out: IC 50 G-361
# Text: One of the parameters used, as the basis for cytotoxicity assays, is the metabolic activity of viable cells. For example, a microtiter assay, which uses the Calcein AM, is now widely used to quantitate cell proliferation and cytotoxicity. For instance, this assay is used in drug screening programs and in chemosensitivity testing. Because only metabolically active cells cleave Calcein AM, these assays detect viable cells exclusively. The quantity of reduced Calcein AM corresponds to the number of vital cells in the culture.
# Human T-lymphoblastic leukemia cell line CEM; promyelocytic HL-60 and monocytic U937 leukemias; breast carcinoma cell lines MCF-7; cervical carcinoma cells HELA; mouse fibroblasts NIH3T3; human erythroleukaemia K562 and human malignant melanoma cells G361 were used for routine screening of compounds. The cells were maintained in Nunc/Corning 80 cm^2 plastic tissue culture flasks and cultured in cell culture medium (DMEM with 5 g/l glucose, 2 mM glutamine, 100 U/ml penicillin, 100 μg/ml streptomycin, 10% fetal calf serum and sodium bicarbonate).
# The cell suspensions that were prepared and diluted according to the particular cell type and the expected target cell density (10^4 cells per well based on cell growth characteristics) were added by pipette (80 μl) into 96/well microtiter plates. Inoculates were allowed a pre-incubation period of 24 hours at 37° C. and 5% CO2 for stabilisation. Four-fold dilutions of the intended test concentration were added at time zero in 20 μl aliquots to the microtiter plate wells. Usually, test compound was evaluated at six 4-fold dilutions. In routine testing, the highest well concentration was 166.7 μM, but it can be the matter of change dependent on the agent. All drug concentrations were examined in duplicates. Incubations of cells with the test compounds lasted for 72 hours at 37° C., in 5% CO2 atmosphere and 100% humidity. At the end of incubation period, the cells were assayed by using the Calcein AM. Ten microliters of the stock solution were pipetted into each well and incubated further for 1 hours. Fluorescence (FD) was measured with the Labsystem FIA Reader Fluoroscan Ascent (UK). The tumour cell survival (GI50) was calculated using the following equitation: GI50=(FDdrug exposed well/mean FDcontrol wells)×100%. The GI50 value, the drug concentration lethal to 50% of the tumour cells, was calculated from the obtained dose response curves (FIG. 3).
# [7] = tested on: Human T-lymphoblastic leukemia cell line CEM; assay: In vitro cytotoxic activity, Calcein AM assay, CEM; type: cell-based; settings: 72 hours
# How it was run: as §1
# [8] = tested on: Triticum aestivum cv. Hereward; assay: Senescence inhibition on winter wheat leaf segments (chlorophyll retention); type: in vivo
# Description: Seeds of winter wheat, Triticum aestivum cv. Hereward, were washed under running water for 24 hours and then sown on vermiculite soaked with Knop's solution. They were placed in the grown chamber at 15° C. with a 16/8 h light period at 50 μmol·m^−2·s^−1. After 7 days, the first leaf was fully developed and the second leaf had started to grow. A tip section of the first leaf, approximately 35 mm long, was removed from 5 seedlings and trimmed slightly to a combined weight of 100 mg. The basal ends of the five leaf tips were placed in the wells of a microtiter polystyrene plate containing 150 μl of a cytokinin solution each. The entire plate was inserted into a plastic box lined with paper tissues soaked in distilled water to prevent leaf sections from drying out. After a 96 h incubation in the dark at 25° C., the leaves were removed and chlorophyll extracted by heating at 80° C. for 10 min in 5 ml of 80% ethanol (v/v). The sample volume was then restored to 5 ml by the addition of 80% ethanol (v/v). The absorbency of the extract was recorded at 665 nm. In addition, chlorophyll extracts from fresh leaves and leaf tips incubated in deionised water were measured. From the obtained data, the concentration with highest activity was selected for each compound tested. Relative activity of the compound at this concentration was calculated (Tab. 10). The activity obtained for 10^−4 M 6-benzylaminopurine (BAP) was postulated as 100%. The values shown are means of five replicates and the whole experiment was repeated twice. The cytokinins to be tested were dissolved in dimethylsulfoxide (DMSO) and the solution brought up to 10^−3M with distilled water. This stock was further diluted in distilled water to concentrations ranging from 10^−8M to 10^−4M.
# [9] = tested on: tobacco callus Nicotiana tabacum L. cv. Wisconsin 38; assay: Growth of cytokinin-dependent tobacco callus; type: cell-based
# Description: Cytokinin-dependent tobacco callus Nicotiana tabacum L. cv. Wisconsin 38 was maintained at 25° C. in darkness on modified Murashige-Skoog medium, containing per 1 liter: 4 μmol nicotinic acid, 2.4 μmol pyridoxine hydrochloride, 1.2 μmol thiamine, 26.6 μmol glycine, 1.37 μmol glutamine, 1.8 μmol myo-inositol, 30 g of sucrose, 8 g of agar, 5.37 μmol α-naphtylacetic acid (NAA) and 0.5 μmol benzylaminopurine (BAP). Subcultivation was carried out every three weeks. Fourteen days before the bioassay, the callus tissue was transferred to the media without 6-benzylaminopurine (BAP). Biological activity was determined from the increase in fresh callus weight after four weeks of cultivation. Five replicates were prepared for each cytokinin concentration and the entire test was repeated twice. From the obtained data, the concentration with highest activity was selected for each compound tested. Relative activity of the compound at this concentration was calculated (Tab. 6). […] The cytokinins to be tested were dissolved in dimethylsulfoxide (DMSO) and the solution brought up to 10^−3M with distilled water. This stock was further diluted in the respective media used for the biotest to concentrations ranging from 10^−8M to 10^−4M.
# [10] = tested on: Amaranthus caudatus cotyledon/hypocotyl explants; assay: Amaranthus bioassay (betacyanin content); type: in vivo
# How it was run: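 Surface-sterilised Amaranthus caudatus var. atropurpurea seeds were germinated 72 h at 25° C. in darkness, then de-rooted. Cotyledon/hypocotyl explants (20 per dish) were incubated under green safe light on filter paper with 1 ml medium of 10 μmol NA2HPO4-KH2PO4, pH 6.8, 5 μmol tyrosine and cytokinin (10^-8M to 10^-4M) for 48 h at 25° C. in darkness. Betacyanin was extracted in […] acetic acid and measured by absorbance at 537 nm and 620 nm.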
Structure (SMILES),IC50 [1] [µM],IC50 ([2]; 72 hours) [µM],IC50 ([3]; 72 hours) [µM],IC50 ([4]; 72 hours) [µM],IC50 ([5]; 72 hours) [µM],IC50 ([6]; 72 hours) [µM],IC50 [7] [µM],"IC50 ([1]; Homo sapiens, HOS) [µM]","IC50 ([2]; Mus musculus, NIH3T3, 72 hours) [µM]","IC50 ([3]; Homo sapiens, MCF7, 72 hours) [µM]","IC50 ([4]; Homo sapiens, K562, 72 hours) [µM]","IC50 ([5]; Homo sapiens, HL-60, 72 hours) [µM]","IC50 ([6]; Homo sapiens, G-361, 72 hours) [µM]",IC50 ([7]; Homo sapiens) [µM],"Concentration with highest activity ([8]; chlorophyll retention in excised wheat leaf tips, 96 h dark)","Activity (%) [10^−4 mol · l^−1 BAP = 100%] ([8]; chlorophyll retention, at concentration with highest activity) [%]","Activity (%) [10^−5 mol · l^−1 BAP = 100%] ([9]; callus growth, at concentration with highest activity) [%]",Concentration with highest activity ([9]; fresh callus weight after four weeks),Concentration with highest activity ([10]; 48 h dark),Activity (%) [10^−5 mol · l^−1 BAP = 100%] ([10]; at concentration with highest activity) [%]
"C/C(=C\CNc1ncnc2c1ncn2[C@@H]1O[C@H](CO)[C@@H](O)[C@H]1O)CO [zeatin riboside, reference compound]",> 167,> 167,> 167,> 167,> 167,> 167,> 167,,,,,,,,,,,,,
"OC[C@H]1O[C@@H](n2cnc3c(NCc4cccc(O)c4)nc(Cl)nc32)[C@H](O)[C@@H]1O [R2 = Cl, 3-hydroxybenzylamino]",> 167,> 167,> 167,> 167,15.9,> 167,47.8,,,,,,,,,,,,,
"OC[C@H]1O[C@@H](n2cnc3c(NCc4cccc(F)c4)nc(Cl)nc32)[C@H](O)[C@@H]1O [R2 = Cl, 3-fluorobenzylamino]",> 167,> 167,16,5.3,0.9,16,3,,,,,,,,,,,,,
"OC[C@H]1O[C@@H](n2cnc3c(NCc4ccc(O)cc4)nc(Cl)nc32)[C@H](O)[C@@H]1O [R2 = Cl, 4-hydroxybenzylamino]",> 167,> 167,> 167,> 167,9.5,> 167,39.7,,,,,,,,,,,,,
"COc1ccccc1CNc1nc(SC)nc2c1ncn2[C@@H]1O[C@H](CO)[C@@H](O)[C@H]1O [R2 = SCH3,2-methoxyxybenzylamino]",34.3,> 167,> 167,34.8,10.2,> 167,11.5,,,,,,,,,,,,,
"COc1cccc(CNc2nc(N)nc3c2ncn3[C@@H]2O[C@H](CO)[C@@H](O)[C@H]2O)c1 [R2 = NH2,3-methoxyxybenzylamino]",> 167,> 167,> 167,> 167,8.9,> 167,13.8,,,,,,,,,,,,,
"COc1cccc(CNc2nc(Cl)nc3c2ncn3[C@@H]2O[C@H](CO)[C@@H](O)[C@H]2O)c1O [R2 = Cl, 2-hydroxy-3-methoxybenzylamino]",> 167,> 167,23,17,0.1,140,0.2,,,,,,,,,,,,,
Nc1ncnc2c1ncn2[C@@H]1O[C@H](CO)[C@@H](O)[C@H]1O [adenosine],,,,,,,,> 167,> 167,> 167,> 167,> 167,> 167,> 167,,,,,,
"COc1cccc(CNc2nc(SC)nc3c2ncn3[C@@H]2O[C@H](CO)[C@@H](O)[C@H]2O)c1 [R2 = SCH3,3-methoxyxybenzylamino]",> 167,> 167,> 167,> 167,8.8,> 167,16.5,,,,,,,,,,,,,
"COc1ccccc1CNc1nc(Cl)nc2c1ncn2C1OC(CO)C(O)C1O (centres unmarked) [R2 = Cl, 2-methoxyxybenzylamino]",15.3,> 167,> 167,14.5,1.5,> 167,2.7,,,,,,,,,,,,,
"Nc1nc(NCc2cccc(F)c2)c2ncn([C@@H]3O[C@H](CO)[C@@H](O)[C@H]3O)c2n1 [R2 = NH2,3-fluorobenzylamino]",> 167,> 167,36,12,3.4,21,21,,,,,,,,,,,,,
"OC[C@H]1O[C@@H](n2cnc3c(NCc4ccc(Br)cc4)ncnc32)[C@H](O)[C@@H]1O [4-bromobenzylamino, 6-(4-bromobenzylamino)purine riboside]",> 167,> 167,> 167,68.2,47.4,,20.6,,,,,,,,10^−4 mol · l^−1,76 ± 11,15 ± 11,10^−6 mol · l^−1,10^−5 mol · l^−1,30 ± 8
